These results are taken from US11478471B2, “Methods and compositions for treating diabetes, metabolic syndrome and other conditions” (priority 2005, dated 2022).

The conditions of data set [1]: SBA for NDA 18-533; cited from earlier work.
The subject of data set [2] is CYP7A (cholesterol 7α hydroxylase). Put plainly: Inhibition of CYP7A, cholesterol 7α-hydroxylase activity (Rotstein et al. 1992). Conditions: assuming intrahepatic concentration approximately 20% of total plasma concentration.

Molecules are shown by their SMILES.

On to `CC(=O)N1CCN(c2ccc(OCC3COC(Cn4ccnc4)(c4ccc(Cl)cc4Cl)O3)cc2)CC1` (racemic) [Racemic ketoconazole, 1-acetyl-4-[4-[[2-(2,4-dichlorophenyl)-2-[(1H-imidazol-1-yl)-methyl]-1,3-dioxolan-4-yl]methoxy]phenyl]piperazine], for which the carcinogenicity entry in data set [1] is reported as “non-carcinogenic”.

In the case of `CC(=O)N1CCN(c2ccc(OC[C@@H]3CO[C@@](Cn4ccnc4)(c4ccc(Cl)cc4Cl)O3)cc2)CC1` [DIO-902, 2S,4R cis-1-acetyl-4-[4-[[2-(2,4-dichlorophenyl)-2-(1H-imidazol-1-ylmethyl)-1,3-dioxolan-4-yl]methoxyl]phenyl]piperazine], the “total plasma concentration required to inhibit intrahepatic CYP7A” value in data set [2] was 12 microM and approximately 6.3 microg/mL.
